Assay results as given in patent EP0470144B1, “BETA-HYDROXAMATE D-ASPARTIC ACID FOR TREATMENT OF VIRAL INFECTIONS AND TUMOURS” (priority 1989, dated 1990).

Legend:
leucémie L1210 = assay: Antitumour activity in the L1210 leukaemia model, survival; type: in vivo, souris B6D2F1/J; conditions: for Nombre d'animaux survivants: at 30 days
Excerpt: L'activité antitumorale du DAH et du LAH a été étudiée sur le modèle de leucémie L1210. Les cellules leucémiques L1210 sont maintenues par passages intrapéritonéaux dans la souris B6D2F1/J mâle. […] La durée d'observation est de 30 jours.

[1] = LD50 comparison of DAH and LAH; conditions: in vivo

SMILES: N[C@@H](CC(=O)NO)C(=O)O [LAH, L-aspartique acide β hydroxamate, reference compound]
- T/Cx100 (leucémie L1210; 1,5 g/kg x4/j, day 1): 50%
- Nombre d'animaux survivants (leucémie L1210; 1,5 g/kg x4/j, day 1): 0/5
- T/Cx100 (leucémie L1210; 1 g/kg x4/j, days 1,2): 65%
- Nombre d'animaux survivants (leucémie L1210; 1 g/kg x4/j, days 1,2): 0/5
- activité antitumorale (leucémie L1210; lighter protocol than for DAH): on n'a pas observé d'activité antitumorale
- toxicité (leucémie L1210; lighter protocol, treated animals died before the control group): toxicité très importante
- toxicité (leucémie L1210; same dosage conditions as DAH (1 g/kg, 4 times a day, 3 days)): très toxique
- DL 50 % [1]: 2,5 g/kg
